The source of these data is US8268786B2, “Anti-cancer tocotrienol analogues and associated methods” (First Tech International Limited, priority 2009, dated 2012).

Usually IC50 stands for the midpoint of a concentration-inhibition curve.

The structures appear in SMILES notation. Like-named read-outs stand apart in the source and are kept apart here.

The test system of assay [1] is ER-negative human breast cancer cells MDA-MB-231. Put plainly: MTT antiproliferative assay, MDA-MB-231 cells. The assay is classed as cell-based. To be noted: for antiproliferative activity (in words): MDA-MB-231. As for the experimental part: (§1) For each of the assays performed the compounds were dissolved in aqueous culture media by binding the compounds with bovine serum albumin (BSA).
(§2) An amount of each compound appropriate for the desired final compound concentration was placed in a 1.5 mL screw top glass vial and dissolved in 100 μL of 100% ethanol. Once dissolved, this ethanol/compound solution was added to a small volume of sterile 10% BSA in water and incubated overnight at 37° C. […] Ethanol was added to all treatment media such that the final ethanol concentration was the same in all treatment groups within a given experiment and was always less than 0.1%. Although the examples provided have been described in conjunction with specified amounts of ethanol and other compounds it should be understood that the invention is applicable to embodiments not having those limited concentration.
(§3) The cell growth of MCF7 (Example 24) and MDA-MB-231 (Example 25) cell lines was measured using the MTT assay procedures described above and an MTT assay kit (TACS™, Trevogen®, Inc., Gaithersburg, Md.). After passing the cells for 3-4 times, growing cells were incubated in a 96-well plate at a density of 8×10^3 cells per well, and allowed to attach for 24 hours. Complete growth medium was then replaced with 100 μL of RPMI serum free medium (GIBCO-Invitrogen, NY) containing various doses (20, 10, 5, 2 μM) of the tested compound and the culture continued at 37° C. under 5% CO2. After 96 hours, the incubated cells were treated with MTT solution (10 μL/well) at 37° C. for 4 hours. The color reaction was stopped by the addition of solubilization/stop solution (100 μL/well). The cells continued to be incubated at 37° C. to completely dissolve the formazan product. Absorbance of the samples was determined at 570 nm with an ELISA plate reader (BioTek, VT). Absorbance readings were converted to estimated cell numbers based on a standard curve prepared by plating various concentration of cells, as determined by hemocytometer, and measuring the absorbance of those cells at the start of each experiment. The IC50 value of each compound was calculated using nonlinear regression (curve fit) of log concentration versus the number of cells/well implemented using GraphPad Prism 5.0 program. The procedure was identical for both human breast cancer cell lines MCF7 and MDA-MB-231.
Background: Formazan colour is commonly taken as a measure of viable cells.

In assay [2] the test system is ER-positive human breast cancer cells MCF7. Put plainly: MTT antiproliferative assay, MCF7 cells. The assay is classed as cell-based. The conditions noted are these: for potency relative to parent natural tocotrienol / antiproliferative activity (in words): MCF7; for potency relative to parent natural tocotrienol: 4 and 10 versus Compound 1, 8 versus Compound 2. The procedure:
as §1, §2, §3

In assay [3] the test system is highly metastatic breast cancer cell line MDA-MB-231. Put plainly: BME Cell Invasion Assay (Boyden chamber, calcein-AM). The assay is classed as cell-based, human. To be noted: for anti-invasive activity (in words): MDA-MB-231, 5 μM. As for the experimental part: Anti-Invasion Assays were performed to measure the anti-invasive properties of Compounds 1-21 using a 96 well basement membrane extract “BME” Cell Invasion Assay (Cultrex®, Trevogen, Catalog# 3455-096-K) with the highly metastatic breast cancer cell line MDA-MB-231. This assay employs a simplified Boyden Chamber design with a polyethylene terephthalate membrane (8 μm). Detection of cell invasion is quantified using calcein-AM. Cells internalize calcein-AM and intracellular esterases cleave the acetomethylester moiety to generate free calcein. Free calcein fluoresces brightly, and this fluorescence may be used to quantify the number of cells that have invaded across BME. (See Tamilarasan and Borghesani, referenced above)
About […] of basement membrane extract (BME, 1×) coat was added per well. After overnight incubation at 37° C. in a 5% CO2 incubator, 50,000/50 μL of MDA-MB-231 cells in serum free RPMI medium were added to the top chamber of each well, which contained the tested compound at a treatment concentration of 5 μM. About 150 μL of RPMI medium was added to the lower chamber, which contained 10% fetal bovine serum, penicillin/streptomycin, and fibronectin (1 μL/mL) and N-formyl-met-leu-phe (10 nM) as chemoattractants. Cells were allowed to migrate to the lower chamber at 37° C. in a CO2 incubator. After 24 h, the top and bottom chambers were aspirated and washed with a washing buffer solution. About 100 μL of cell dissociation solution/Calcein-AM solution was added to the bottom chamber and incubated for 1 hour at 37° C. in a CO2 incubator. The cells internalized calcein-AM, and the intracellular esterases cleaved the acetomethylester (AM) moiety to generate free calcein. Fluorescence of the samples was determined at 485 nm excitation; 520 nm emissions were measured using a plate reader (BioTek, VT). The numbers of cells that invaded through the BME coat were calculated using a standard curve.
Differences among the various treatment groups were determined by analysis of variance (ANOVA) followed by Dunnett's t-test. Differences were considered to be statistically significant at a value of <0.05, as compared to vehicle treated controls.

The mark [4] stands for this setting: 96 hours, serum free medium, calculated by nonlinear regression, read-out: MDA-MB-231 IC50.
Setting [5] is: 96 hours, serum free medium, calculated by nonlinear regression, read-out: MCF7 IC50.
Where [6] appears, read: Homo sapiens, MDA-MB-231, 96 h, read-out: MDA-MB-231 IC50 μM.
The mark [7] stands for this setting: Homo sapiens, MCF7, 96 h, read-out: MCF7 IC50 μM.

Turning to `CC(C)=CCC/C(C)=C/CC/C(C)=C/CC[C@]1(C)CCc2c(C)c(O)c(C)c(C)c2O1` [Compound 1, α-tocotrienol, reference compound], the IC50 in assay [1] (setting [4]) was > 10 µM; in assay [2] (setting [5]), > 20 µM.

On to `CC(C)=CCC/C(C)=C/CC/C(C)=C/CC[C@]1(C)CCc2cc(O)c(C)c(C)c2O1` [Compound 2, γ-tocotrienol, reference compound], for which the IC50 in assay [1] (setting [4]) is > 10 µM; in assay [2] (setting [5]), 11.4 µM.

In the case of `CC(C)=CCC/C(C)=C/CC/C(C)=C/CC[C@]1(C)CCc2cc(O)cc(C)c2O1` [Compound 3, δ-tocotrienol, reference compound], the IC50 in assay [1] (setting [4]) was > 10 µM; in assay [2] (setting [5]), 15.5 µM.

In the case of `CC(C)=CCC/C(C)=C/CC/C(C)=C/CCC1(C)CCc2c(C)c(OC(=O)NS(=O)(=O)c3ccccc3)c(C)c(C)c2O1` (stereo not shown) [Compound 4, 2,5,7,8-tetramethyl-2-((3E,7E)-4,8,12-trimethyltrideca-3,7,11-trienyl)chroman-6-ylphenylsulfonylcarbamate], the IC50 in assay [1] (setting [4]) was > 10 µM; in assay [2] (setting [5]), 4.5 µM. Besides, in assay [2], the “potency relative to parent natural tocotrienol” value is 8 fold.

With `CC(C)=CCC/C(C)=C/CC/C(C)=C/CCC1(C)CCc2cc(OC(=O)NS(=O)(=O)c3ccccc3)c(C)c(C)c2O1` (stereo not shown) [Compound 5, 2,7,8-trimethyl-2-((3E,7E)-4,8,12-trimethyltrideca-3,7,11-trienyl)chroman-6-ylphenylsulfonylcarbamate], the IC50 in assay [1] (setting [4]) and in assay [2] (setting [5]) was > 10 µM throughout.

With `CC(C)=CCC/C(C)=C/CC/C(C)=C/CCC1(C)CCc2cc(OC(=O)NS(=O)(=O)c3ccccc3)cc(C)c2O1` (stereo not shown) [Compound 6, 2,8-dimethyl-2-((3E,7E)-4,8,12-trimethyltrideca-3,7,11-trienyl)chroman-6-ylphenylsulfonylcarbamate], the IC50 in assay [1] (setting [4]) was > 10 µM; in assay [2] (setting [5]) it was 6.1 µM. Further, the “antiproliferative activity (in words)” value in assay [2] is given as “activities greater than the natural tocotrienols from which they were derived”.

For the molecule `CC(C)=CCC/C(C)=C/CC/C(C)=C/CC[C@]1(C)CCc2c(C)c(OC(=O)NS(=O)(=O)c3ccc(C)cc3)c(C)c(C)c2O1` [Compound 7, (R)-2,5,7,8-tetramethyl-2-((3E,7E)-4,8,12-trimethyltrideca-3,7,11-trienyl)chroman-6-yl tosylcarbamate], the IC50 is > 10 µM in assay [1] (setting [6]) and 6.1 µM in assay [2] (setting [7]). In addition, the “antiproliferative activity (in words)” value in assay [2] is listed as “activities greater than the natural tocotrienols from which they were derived”.

With `CC(C)=CCC/C(C)=C/CC/C(C)=C/CC[C@]1(C)CCc2c(C)c(OC(=O)NS(=O)(=O)c3ccc(Cl)cc3)c(C)c(C)c2O1` [Compound 10, (R)-2,5,7,8-tetramethyl-2-((3E,7E)-4,8,12-trimethyltrideca-3,7,11-trienyl)chroman-6-yl 4-chlorophenylsulfonylcarbamate], the IC50 in assay [1] (setting [6]) is > 10 µM; in assay [2] (setting [7]) it was 2.4 µM. The “potency relative to parent natural tocotrienol” value in assay [2] is on record as 8 fold.

In the case of `CC(C)=CCC/C(C)=C/CC/C(C)=C/CC[C@]1(C)CCc2cc(OC(=O)NS(=O)(=O)c3ccc(Cl)cc3)c(C)c(C)c2O1` [Compound 11, (R)-2,7,8-trimethyl-2-((3E,7E)-4,8,12-trimethyltrideca-3,7,11-trienyl)chroman-6-yl 4-chlorophenylsulfonylcarbamate], the IC50 in assay [1] (setting [6]) and in assay [2] (setting [7]) was > 10 µM throughout.

In the case of `CC(C)=CCC/C(C)=C/CC/C(C)=C/CC[C@]1(C)CCc2cc(OC(=O)NS(=O)(=O)c3ccc(Cl)cc3)cc(C)c2O1` [Compound 12, (R)-2,8-dimethyl-2-((3E,7E)-4,8,12-trimethyltrideca-3,7,11-trienyl)chroman-6-yl 4-chlorophenylsulfonylcarbamate], the half-inhibitory concentration (IC50) in assay [1] (setting [6]) and in assay [2] (setting [7]) was > 10 µM in each case.

In the case of `CC(C)=CCC/C(C)=C/CC/C(C)=C/CC[C@]1(C)CCc2c(C)c(OC(=O)Nc3ccccc3)c(C)c(C)c2O1` [Compound 13, (R)-2,5,7,8-tetramethyl-2-((3E,7E)-4,8,12-trimethyltrideca-3,7,11-trienyl)chroman-6-yl phenylcarbamate], the IC50 in assay [1] (setting [6]) is > 10 µM; in assay [2] (setting [7]), > 20 µM. In addition, the “antiproliferative activity (in words)” value in assay [1] is given as “improved activities”. In addition, the “anti-invasive activity (in words)” value in assay [3] is recorded as “more active than their natural tocotrienol parent compounds”.

`CC(C)=CCC/C(C)=C/CC/C(C)=C/CC[C@]1(C)CCc2cc(OC(=O)Nc3ccccc3)c(C)c(C)c2O1` [Compound 14, (R)-2,7,8-trimethyl-2-((3E,7E)-4,8,12-trimethyltrideca-3,7,11-trienyl)chroman-6-yl phenylcarbamate]: the IC50 in assay [1] (setting [6]) and in assay [2] (setting [7]) was > 10 µM each time.

In the case of `CC(C)=CCC/C(C)=C/CC/C(C)=C/CC[C@]1(C)CCc2cc(OC(=O)Nc3ccccc3)cc(C)c2O1` [Compound 15, (R)-2,8-dimethyl-2-((3E,7E)-4,8,12-trimethyltrideca-3,7,11-trienyl)chroman-6-yl phenylcarbamate], the IC50 in assay [1] (setting [6]) and in assay [2] (setting [7]) was > 10 µM in each case.

For `CC(C)=CCC/C(C)=C/CC/C(C)=C/CC[C@]1(C)CCc2c(C)c(OC(=O)NCc3ccccc3)c(C)c(C)c2O1` [Compound 16, (R)-2,5,7,8-tetramethyl-2-((3E,7E)-4,8,12-trimethyltrideca-3,7,11-trienyl)chroman-6-yl benzylcarbamate], the IC50 in assay [1] (setting [6]) is 7.2 µM; in assay [2] (setting [7]) it was > 20 µM. Further, the “antiproliferative activity (in words)” value in assay [1] is reported as “improved activities”. Besides, the MDA-MB-231 cells invasion in assay [3] (5 μM, 24 h) is reported as 8%. The “anti-invasive activity (in words)” value in assay [3] is reported as “more active than their natural tocotrienol parent compounds”.

As for `CC(C)=CCC/C(C)=C/CC/C(C)=C/CC[C@]1(C)CCc2cc(OC(=O)NCc3ccccc3)cc(C)c2O1` [Compound 18, (R)-2,8-dimethyl-2-((3E,7E) 4,8,12-trimethyltrideca-3,7,11-trienyl)chroman-6-yl benzylcarbamate], the IC50 in assay [1] (setting [6]) and in assay [2] (setting [7]) was > 10 µM in each case.

For `CC(C)=CCC/C(C)=C/CC/C(C)=C/CC[C@]1(C)CCc2c(C)c(OC(=O)NC(=O)c3ccccc3)c(C)c(C)c2O1` [Compound 19, (R)-2,5,7,8-tetramethyl-2-((3E,7E)-4,8,12-trimethyltrideca-3,7,11-trienyl)chroman-6-yl benzoylcarbamate], the IC50 in assay [1] (setting [6]) is > 10 µM; in assay [2] (setting [7]) it was > 20 µM.

As for `CC(C)=CCC/C(C)=C/CC/C(C)=C/CC[C@]1(C)CCc2cc(OC(=O)NC(=O)c3ccccc3)c(C)c(C)c2O1` [Compound 20, (R)-2,7,8-trimethyl-2-((3E,7E)-4,8,12-trimethyltrideca-3,7,11-trienyl)chroman-6-yl benzoylcarbamate], the IC50 in assay [2] (setting [7]) was > 10 µM.

In the case of `CC(C)=CCC/C(C)=C/CC/C(C)=C/CC[C@]1(C)CCc2cc(OC(=O)NC(=O)c3ccccc3)cc(C)c2O1` [Compound 21, (R)-2,8-dimethyl-2-((3E,7E)-4,8,12-trimethyltrideca-3,7,11-trienyl)chroman-6-yl benzoylcarbamate], the IC50 in assay [2] (setting [7]) was found to be 5.6 µM.
